The record followed here is patent US12102709B2, “Anti-obesity agent, anti-dementia agent, deodorant, anti-aging agent, anti-glycation agent, anti-type I allergy agent, hypotensive agent, flavor improving agent, muscle enhancing agent, and bone metabolism improving agent” (Mitsui Sugar Co., Ltd., priority 2018, dated 2024).

Structures are written as SMILES.

The test system of the experiment is C2C12 cells. Description: Myotube cell differentiation promotion test (Fusion index). The class given is cell-based, mouse. The note with it: 0.5 μM LDN-193189 with DMSO; 3 days; Comparative Example i2-2 55.1 ± 0.09. On the procedure: (Cells) • Mouse Myoblasts C2C12 Cells (ATCC, CRL-1772) (Culture Mediums) • Growth culture medium composition: DMEM culture medium, 10% FBS, antibiotics added • Differentiation culture medium composition: DMEM culture medium, 0.5% FBS, antibiotics added C2C12 cells were cultivated using a growth culture medium in a T-75 flask (75 cm^2 U-shaped canted neck cell culture flask, commercially available from Corning Co., Ltd.). The T-75 flask was put into a CO2 incubator (5% CO2, 37° C., wet) and the C2C12 cells were cultured. The culture medium was replaced every other day, and when an 80% confluence was reached, the cells were collected and used for the test. Here, in the following test, regarding a well plate for culturing C2C12 cells, a plate coated with gelatin according to the following coating method was used. Pre-cultured cells were seeded in a 96-well plate for fluorescence observation at 4×10^4 cells/0.1 mL/well using a growth culture medium. The well plate was cultured in a CO2 incubator (5% CO2, 37° C.) for 2 days. […] After the culture medium was replaced, culturing was performed for 3 days, and after fixing, immunostaining with anti-myosin heavy chain (MHC) antibodies was performed. […] A total number of Hoechst positive nuclei and the number of MHC-positive nuclei were measured, and the Fusion index (% of MHC+nuclei) was calculated according to the following formula. […]

For `c1ccc2c(-c3cnn4cc(-c5ccc(N6CCNCC6)cc5)cnc34)ccnc2c1` [Positive Control i2, 4-(6-(4-(piperazine-1-yl)phenyl)pyrazolo[1,5-a]pyrimidin-3-yl)quinoline], the “Fusion index (% of MHC + nuclei)” value stood at 63.7 ± 0.88 %.
